Source: the NIST ThermoML archive (doi:10.1016/j.tca.2016.06.022)

Assay: xn = mol fraction of the nth substance listed
Conditions: 101 kPa, Liquid, Vibrating tube method

NCCN [ethane-1,2-diamine] + O
Conditions | mass density [kg/m3]
274.15 K, x1 = 0.002 | 999.81
274.15 K, x1 = 0.0033 | 999.71
274.15 K, x1 = 0.0047 | 999.62
274.15 K, x1 = 0.0072 | 999.47
274.15 K, x1 = 0.009 | 999.38
274.15 K, x1 = 0.0123 | 999.18
274.15 K, x1 = 0.0222 | 998.88
274.15 K, x1 = 0.0436 | 999.22
274.15 K, x1 = 0.0609 | 1000.11
274.15 K, x1 = 0.0827 | 1002.02
275.15 K, x1 = 0.002 | 999.85
275.15 K, x1 = 0.0033 | 999.74
275.15 K, x1 = 0.0047 | 999.65
275.15 K, x1 = 0.0072 | 999.48
275.15 K, x1 = 0.009 | 999.37
275.15 K, x1 = 0.0123 | 999.18
275.15 K, x1 = 0.0222 | 998.82
275.15 K, x1 = 0.0436 | 999.08
275.15 K, x1 = 0.0609 | 999.93
275.15 K, x1 = 0.0827 | 1001.75
276.15 K, x1 = 0.002 | 999.87
276.15 K, x1 = 0.0033 | 999.75
276.15 K, x1 = 0.0047 | 999.66
276.15 K, x1 = 0.0072 | 999.48
276.15 K, x1 = 0.009 | 999.37
276.15 K, x1 = 0.0123 | 999.16
276.15 K, x1 = 0.0222 | 998.79
276.15 K, x1 = 0.0436 | 998.93
276.15 K, x1 = 0.0609 | 999.69
276.15 K, x1 = 0.0827 | 1001.43
277.15 K, x1 = 0.002 | 999.87
277.15 K, x1 = 0.0033 | 999.75
277.15 K, x1 = 0.0047 | 999.65
277.15 K, x1 = 0.0072 | 999.47
277.15 K, x1 = 0.009 | 999.35
277.15 K, x1 = 0.0123 | 999.12
277.15 K, x1 = 0.0222 | 998.71
277.15 K, x1 = 0.0436 | 998.76
277.15 K, x1 = 0.0609 | 999.54
277.15 K, x1 = 0.0827 | 1001.13
278.15 K, x1 = 0.002 | 999.85
278.15 K, x1 = 0.0033 | 999.73
278.15 K, x1 = 0.0047 | 999.62
278.15 K, x1 = 0.0072 | 999.43
278.15 K, x1 = 0.009 | 999.3
278.15 K, x1 = 0.0123 | 999.07
278.15 K, x1 = 0.0222 | 998.62
278.15 K, x1 = 0.0436 | 998.59
278.15 K, x1 = 0.0609 | 999.31
278.15 K, x1 = 0.0827 | 1000.79
278.15 K, x1 = 0.106 | 1002.72
278.15 K, x1 = 0.1481 | 1006.44
278.15 K, x1 = 0.2063 | 1009.32
278.15 K, x1 = 0.2513 | 1008.93
278.15 K, x1 = 0.3148 | 1002.73
278.15 K, x1 = 0.3258 | 1002.11
278.15 K, x1 = 0.3316 | 1001.85
278.15 K, x1 = 0.341 | 1001.4
278.15 K, x1 = 0.4038 | 992.34
278.15 K, x1 = 0.4489 | 985.23
278.15 K, x1 = 0.4928 | 977.8
278.15 K, x1 = 0.5468 | 968.88
278.15 K, x1 = 0.5907 | 961.76
278.15 K, x1 = 0.6361 | 954.59
278.15 K, x1 = 0.6843 | 947.87
278.15 K, x1 = 0.7386 | 940.37
278.15 K, x1 = 0.7954 | 933.17
278.15 K, x1 = 0.81 | 931.24
278.15 K, x1 = 0.8505 | 926.49
278.15 K, x1 = 0.898 | 921.18
278.15 K, x1 = 0.9282 | 917.97
278.15 K, x1 = 0.9584 | 914.9
278.15 K, x1 = 0.9678 | 913.98
279.15 K, x1 = 0.002 | 999.82
279.15 K, x1 = 0.0033 | 999.7
279.15 K, x1 = 0.0047 | 999.59
279.15 K, x1 = 0.0072 | 999.38
279.15 K, x1 = 0.009 | 999.26
279.15 K, x1 = 0.0123 | 999.01
279.15 K, x1 = 0.0222 | 998.54
279.15 K, x1 = 0.0436 | 998.41
279.15 K, x1 = 0.0609 | 999.05
279.15 K, x1 = 0.0827 | 1000.47
280.15 K, x1 = 0.002 | 999.78
280.15 K, x1 = 0.0033 | 999.65
280.15 K, x1 = 0.0047 | 999.54
280.15 K, x1 = 0.0072 | 999.33
280.15 K, x1 = 0.009 | 999.2
280.15 K, x1 = 0.0123 | 998.93
280.15 K, x1 = 0.0222 | 998.41
280.15 K, x1 = 0.0436 | 998.21
280.15 K, x1 = 0.0609 | 998.8
280.15 K, x1 = 0.0827 | 1000.14
281.15 K, x1 = 0.002 | 999.72
281.15 K, x1 = 0.0033 | 999.59
281.15 K, x1 = 0.0047 | 999.47
281.15 K, x1 = 0.0072 | 999.25
281.15 K, x1 = 0.009 | 999.12
281.15 K, x1 = 0.0123 | 998.84
281.15 K, x1 = 0.0222 | 998.29
281.15 K, x1 = 0.0436 | 998.03
281.15 K, x1 = 0.0609 | 998.53
281.15 K, x1 = 0.0827 | 999.78
282.15 K, x1 = 0.002 | 999.65
282.15 K, x1 = 0.0033 | 999.52
282.15 K, x1 = 0.0047 | 999.39
282.15 K, x1 = 0.0072 | 999.17
282.15 K, x1 = 0.009 | 999.04
282.15 K, x1 = 0.0123 | 998.74
282.15 K, x1 = 0.0222 | 998.17
282.15 K, x1 = 0.0436 | 997.81
282.15 K, x1 = 0.0609 | 998.25
282.15 K, x1 = 0.0827 | 999.43
283.15 K, x1 = 0.002 | 999.56
283.15 K, x1 = 0.0033 | 999.43
283.15 K, x1 = 0.0047 | 999.3
283.15 K, x1 = 0.0072 | 999.07
283.15 K, x1 = 0.009 | 998.92
283.15 K, x1 = 0.0123 | 998.62
283.15 K, x1 = 0.0222 | 998.01
283.15 K, x1 = 0.0436 | 997.6
283.15 K, x1 = 0.0609 | 997.98
283.15 K, x1 = 0.0827 | 999.09
288.15 K, x1 = 0.002 | 998.94
288.15 K, x1 = 0.0033 | 998.79
288.15 K, x1 = 0.0047 | 998.64
288.15 K, x1 = 0.0072 | 998.38
288.15 K, x1 = 0.009 | 998.21
288.15 K, x1 = 0.0123 | 997.87
288.15 K, x1 = 0.0222 | 997.12
288.15 K, x1 = 0.0436 | 996.36
288.15 K, x1 = 0.0609 | 996.47
288.15 K, x1 = 0.0827 | 997.2
288.15 K, x1 = 0.106 | 998.37
288.15 K, x1 = 0.1481 | 1000.83
288.15 K, x1 = 0.2063 | 1002.48
288.15 K, x1 = 0.2513 | 1001.08
288.15 K, x1 = 0.3148 | 995
288.15 K, x1 = 0.3316 | 993.72
288.15 K, x1 = 0.341 | 992.78
288.15 K, x1 = 0.4038 | 983.69
288.15 K, x1 = 0.4489 | 976.15
288.15 K, x1 = 0.4928 | 968.71
288.15 K, x1 = 0.5468 | 959.92
288.15 K, x1 = 0.5907 | 952.42
